Results as given in US7173063B1, “Topoisomerase poisons for the treatment of proliferative disorders” (Fred Hutchinson Cancer Research Center, priority 2000, dated 2007).

Tests used:
[1] = test system: yeast lacking Ku70 (encoded by the HDF1 gene); assay: Yeast toxicity in NHEJ-deficient strain lacking Ku70 (hdf1); type: cell-based
Method: Yeast toxicity assays were performed essentially as follows: Exponentially growing cultures of the appropriate strains were diluted in synthetic complete media to a concentration of 7.4×10^4 cells/mL, and aliquots (135 μL) were transferred to each well of clear flat-bottomed 96 well plates. Compounds were added in duplicate or triplicate as 15 μL of the appropriate dilution in 5% DMSO. A 15 μL portion of 5% DMSO was added to control wells. Assay plates were incubated at 30° C. for approximately seven generations growth in solvent control wells (as monitored by OD660, typically 21–24 hours), then the OD660 of the cultures was measured in a microplate reader (Bio-Tek). Cell growth (OD660) in treated wells was plotted as a percentage of the growth in at least four averaged solvent control wells for the same strain. Camptothecin sodium salt (camptothecin Na) was the agent used in all yeast assays as standard.
The sensitivity of yeast lacking Ku70 (encoded by the HDF1 gene) to camptothecin Na, compounds Ia and IIa, has now been examined. […] Thus the NHEJ pathway is not important for the repair of lesions induced by these compounds in yeast.

human Topo I = biological target: T1, human Topo I (Homo sapiens, UniProt P11387); assay: Toxicity in yeast overexpressing human Topo I (hTOP1) or htop1-vac mutant; type: cell-based; conditions: GAL promoter, galactose-induced, vs vector
T1 construct: expressed in transfected cells; host or cells: S. cerevisiae BY4705 (S288C background), plasmid phTOP1 under the GAL promoter, vector pRS416
T1 sequence (P11387 2-765): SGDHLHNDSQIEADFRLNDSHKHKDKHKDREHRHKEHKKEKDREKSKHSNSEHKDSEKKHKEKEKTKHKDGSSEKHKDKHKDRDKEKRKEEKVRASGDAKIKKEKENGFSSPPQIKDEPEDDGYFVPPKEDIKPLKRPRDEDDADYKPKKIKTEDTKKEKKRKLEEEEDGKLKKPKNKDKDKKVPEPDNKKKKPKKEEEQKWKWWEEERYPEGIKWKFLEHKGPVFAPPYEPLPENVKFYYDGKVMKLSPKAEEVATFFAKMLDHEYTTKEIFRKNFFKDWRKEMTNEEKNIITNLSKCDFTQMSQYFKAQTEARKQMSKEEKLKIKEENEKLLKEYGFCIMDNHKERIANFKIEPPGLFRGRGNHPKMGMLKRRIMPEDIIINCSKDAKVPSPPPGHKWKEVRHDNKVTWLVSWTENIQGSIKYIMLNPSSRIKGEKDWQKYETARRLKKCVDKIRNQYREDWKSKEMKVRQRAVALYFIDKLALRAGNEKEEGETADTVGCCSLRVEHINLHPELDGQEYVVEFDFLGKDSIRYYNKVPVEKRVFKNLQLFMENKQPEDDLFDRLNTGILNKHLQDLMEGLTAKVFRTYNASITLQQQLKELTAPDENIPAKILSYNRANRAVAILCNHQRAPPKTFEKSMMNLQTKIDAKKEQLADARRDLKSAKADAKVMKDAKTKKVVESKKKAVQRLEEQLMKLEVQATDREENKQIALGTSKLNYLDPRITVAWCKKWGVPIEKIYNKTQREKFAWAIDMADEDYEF
Source text: The strains are derived from the A364a genetic background, with the exception of BY4705, which is derived from the S288C background. Gene disruptions were generated by PCR fragment directed replacement (Baudin, et al., Nucleic Acids Research 21: 3329–30 (1993), Guldener, et al., Nucleic Acids Research 24: 2519–24 (1996)). Yeast overexpressing topoisomerase II was constructed by a PCR fragment directed promoter replacement of the topoisomerase II promoter with the yeast GPD promoter flanked upstream by the URA3 marker. All strains (except BY4705) bear the pleitropic drug sensitizing mutations erg6, pdr1, and pdr3 (Balzi, et al., Journal of Bioenergetics & Biomembranes 27: 71–6 (1995), Delaveau, et al, Molecular & General Genetics 244: 501–11 (1994), Gaber, et al., Molecular & Cellular Biology 9: 3447–56 (1989), Saunders, et al., Canadian Journal of Genetics & Cytology, 24: 493–503 (1982). Subik, et al, Current Genetics 10: 665–70 (1986)). The haploid yeast strain BY4705 (Brachmann, et al., Yeast 14: 115–32 (1998)) was used in the experiments described in FIG. 5. Plasmids expressing yeast or human topoisomerase I genes under the GAL promoter (Knab, et al., Journal of Biological Chemistry 268: 22322–30 (1993). Knab, et al., Journal of Biological Chemistry 270: 6141–8 (1995)) were transformed into BY4705 using standard procedures. […]

For `O=c1c(Cl)c(Cl)cnn1CCCl` [compound IIa], the “sensitivity of NHEJ-deficient (hdf1) mutant compared with wild-type” value [1] was “indistinguishable from that of wild-type” and the “effect of hTOP1 overexpression on toxicity” value (human Topo I) was “accentuates the toxicity”.

For `O=C(CCl)Nc1ccc(C(=O)N/N=C/c2ccc(Cl)cc2)cc1` [compound Ia], the “sensitivity of NHEJ-deficient (hdf1) mutant compared with wild-type” value [1] was “indistinguishable from that of wild-type” and the “effect of hTOP1 overexpression on toxicity” value (human Topo I) was “Little or no accentuation”.
